As usually defined, the EC50 is the concentration needed to bring the measured effect to its halfway point. A low value points to higher potency in that assay.

In one experiment the test system is RPTC. To be noted: cited from earlier work; for maximal mitochondrial respiration / mitochondrial proteins (ATP synthase β, Cox1, NDUFB8): RPTC, 1-100 nM.
In experiment [1] the test system is renal proximal tubule cells. Put plainly: In-vitro mitochondrial biogenesis dose response (FCCP-uncoupled OCR, Seahorse). In kind it is cell-based. Conditions: Oryctolagus cuniculus; rabbit renal proximal tubule cells, 24 h incubation, uncoupled OCR normalized to vehicle, Hill fit, N=4-6. As for the experimental part:
OCRs were measured using a Seahorse Bioscience analyzer (North Billerica, Mass.) before (basal) and after addition of […] FCCP, an ionophore that uncouples electron transport from ATP generation. The selective 5-HT1F receptor agonists LY334370 (4-fluoro-N-[3-(1-methyl-4-piperidinyl)-1H-indol-5-yl]benzamide) and LY344864 (N-[(3R)-3-(dimethylamino)-2,3,4,9-tetrahydro-1H-carbazol-6-yl]-4-fluorobenzamide), and the nonselective 5-HT receptor agonist a-methyl 5-HT were purchased from Tocris (Ellisville, Mo.).
In-vitro mitochondrial biogenesis dose responses (reported as EC50 values) were determined from a modification of the assay described in Example 21. […] Compounds were incubated at different doses with renal cells for 24 h after which their basal respiration and elevated FCCP-induced uncoupled oxygen consumption rates (OCRs) were measured using a Seahorse Bioscience analyzer (Beeson et al., 2010). Uncoupled OCRs were normalized to vehicle control OCRs and the rates that decrease at high concentrations of drug were eliminated. The remaining dose-dependent responses were fit to a standard Hill equation using non-linear regression to obtain the EC50 values for replicates of N=4-6 where N is the number of individual rabbit renal cell isolations tested for each compound.

Experiment [2] has as its system podocytes (1-1P4G5 podocyte clone). Put plainly: Podocyte mitochondrial biogenesis (FCCP-uncoupled oxygen consumption rate). The class given is cell-based. Conditions: Mus musculus; differentiated podocytes, FCCP 1 μM uncoupled rate normalized to vehicle, Hill fit. Here is the method:
Fully differentiated podocytes were assayed using increased mitochondrial reserve capacity (measured as FCCP-uncoupled oxygen consumption rate) as a measure of mitochondrial biogenesis.
For these studies the 1-1P4G5 podocyte clone developed in the Kopp lab at the NIH were used. (25) These cells expressed a SV40-driven temperature sensitive T antigen that enabled the cells to proliferate in an undifferentiated state at the permissive temperature of 33° C. and then after 5 days of culture at 37° C. the cells are fully differentiated as mature podocytes. The differentiated cells were maintained in Advanced RPMI 1640 with 10% fetal calf serum and then plated at 1.5 million cells/96-well Seahorse plate for 48 h prior to treatment with test compound, vehicle control (VC) or validated 5-HT1F agonists. The plates were then transferred to a Seahorse XF96 Instrument during which basal and FCCP-uncoupled rates were measured (the [FCCP]=1 μM). Drugs were treated at a range of 1 nM, 10 nM, 100 nM, 500 nM, and 1 μM and the uncoupled rates were normalized to vehicle control, <0.2% DMSO in media. The doses responses were fit to a Hill function and the EC50 values were calculated from the non-linear regression.

For experiment [3], the system named is murine model of glomerular disease. Put plainly: Nephrotoxic serum (NTS) induced chronic kidney disease model, albuminuria. In kind it is in vivo, mouse. To be noted: C57/BL mice, 2 mg/kg once per day, FIG. 1. The source says: Renal dysfunction was modeled in mice using the nephrotoxic serum (NTS) induced model. The classical Adriamycin model for glomerular studies relies critically on dosing profiles, has resistance in some murine species, off-target effects in others, and required days (10 days) instead of hours for observable albuminuria (marker for renal compromise, determined by urine collection) compared to the NTS counterpart. (Mallipattu, S. K.; He, J. C. Am. J. Physiol. Renal Physiol. 2016, 311, F46-F51; Pippin, J. W.; Brinkkoetter, P. T.; Cormack-Aboud, F. C.; Durvasula, R. V.; Hauser, P. V.; Kowalewska, J.; Krofft, R. D.; Logar, C. M.; Marshall, C. B.; Ohse, T.; Shankland, S. J. Am. J. Physiol. Renal Physiol. 2009, 296, F213-F229). Conversely, the NTS model is quick onset (4 h) and has wide species reproducibility.
In this experiment, induction of the nephrotoxic serum (NTS) model ([…] injection) for glomerular decline was performed using C57/BL mice (15 mice total).
Urine albumin/creatinine ratios were measured in control (NTS+vehicle) and drug treated mice (NTS+drug (example 6) for pre-injection, day 2, day 6, day 12 and day 14. Drug was administered once per day at 2 mg/kg. Thus, it is expected that the compounds of the invention are useful to treat chronic kidney disease.

Experiment [4] deals with murine renal cortex, heart, and liver. Conditions: cited from earlier work.
In experiment [5] the test system is ischemia/reperfusion-induced AKI. Conditions: following ischemia/reperfusion-induced AKI; cited from earlier work.

Consider `COc1cc(CC(C)N)c(OC)cc1I.Cl` (stereo not shown) [DOT, 1-(2,5-dimethoxy-4-iodophenyl)-2-aminopropane hydrochloride], for which, in the experiment with RPTC (renal proximal tubular cells, following oxidant injury), the “recovery of mitochondrial function” value is “accelerated the recovery of mitochondrial function”. Further, the “induction of MB” value in the experiment with RPTC (renal proximal tubular cells) is “potent inducer of MB”.
With `COCCNC(=O)c1cnc2ccc(OC)cn2c1=O` [Example 1, 7-methoxy-N-(2-methoxyethyl)-4-oxo-4H-pyrido[1,2-a]pyrimidine-3-carboxamide], the EC50 in experiment [1] was determined as 20 pM. This counts as picomolar.
In experiment [1], `COCCNC(=O)c1cnc2ccc(NCCOC)cn2c1=O` [Example 2, N-(2-methoxyethyl)-7-((2-methoxyethyl)amino)-4-oxo-4H-pyrido[1,2-a]pyrimidine-3-carboxamide] registered a concentration giving a half-maximal response (EC50) of 20 pM.
On to `COCCNC(=O)c1cnc(N)n(CCOC)c1=O` [Example 3, 2-amino-N,1-bis(2-methoxyethyl)-6-oxo-1,6-dihydropyrimidine-5-carboxamide], for which a half-maximal response in experiment [1] (EC50) required 20000 pM.
On to `COCCNC(=O)c1cnc2c(OC)cc(OC)cc2c1O` [Example 4, 4-hydroxy-6,8-dimethoxy-N-(2-methoxyethyl)quinoline-3-carboxamide], for which the EC50 in experiment [1] worked out at 2000 pM; in experiment [2], 20000 pM.
On to `COc1cc(OC)c2ncc(C(=O)N3CCN(C)CC3)c(O)c2c1` [Example 5, (4-hydroxy-6,8-dimethoxyquinolin-3-yl)(4-methylpiperazin-1-yl)methanone], for which the figures for the EC50 in experiment [1] and in experiment [2] were 1000 pM and 100000 pM, respectively.
Consider `CN1CCN(C(=O)c2cccc(NC(=O)c3c(F)cc(F)cc3F)n2)CC1` [Example 6, 2,4,6-trifluoro-N-(6-(4-methylpiperazine-1-carbonyl)pyridin-2-yl)benzamide], for which the “albuminuria (urine albumin/creatinine ratio)” value in experiment [3] was “attenuated albuminuria”. The figures for the EC50 in experiment [1] and in experiment [2] were 2000 pM and 100000 pM, respectively.
In experiment [1], `CN1CCCN(C(=O)c2cccc(NC(=O)c3c(F)cc(F)cc3F)n2)CC1` [Example 7, 2,4,6-trifluoro-N-(6-(4-methyl-1,4-diazepane-1-carbonyl)pyridin-2-yl)benzamide] displayed an EC50 of 200 pM.
In experiment [1], `Cc1ccc(S(=O)(=O)Nc2cccc(C(=O)N3CCN(C)CC3)n2)cc1` [Example 8, 4-methyl-N-(6-(4-methylpiperazine-1-carbonyl)pyridin-2-yl)benzenesulfonamide] came in with an EC50 of 200 pM.
`CN1CCN(C(=O)c2cccc(NC(=O)N(C)C)n2)CC1` [Example 9, 1,1-dimethyl-3-(6-(4-methylpiperazine-1-carbonyl)pyridin-2-yl)urea] came in with an EC50 in experiment [1] of 200 pM.
In the case of `CN1CCN(C(=O)c2cccc(Nc3nc4ccccc4[nH]3)n2)CC1` [Example 10, (6-((1H-benzo[d]imidazol-2-yl)amino)pyridin-2-yl)(4-methylpiperazin-1-yl)methanone], in experiment [1], the midpoint of the response, the EC50, lay at 200 pM.
In turn, `CN1CCN(C(=O)c2cccc(NC(=O)c3ccccc3)n2)CC1` [Example 11, N-(6-(4-methylpiperazine-1-carbonyl)pyridin-2-yl)benzamide] yielded an EC50 in experiment [1] of 2000 pM. This EC50 lies about 10-fold higher than the previous one.
On to `COCC(=O)N1CCc2ccc(Nc3nc4ccccc4o3)cc21` [Example 12, 1-(6-(benzo[d]oxazol-2-ylamino)indolin-1-yl)-2-methoxyethan-1-one], for which a half-maximal effect in experiment [1] (EC50) was put at 2000 pM.
The molecule `COCC(=O)N1CCc2ccc(NC(=O)c3ccc(F)cc3F)cc21` [Example 13, 2,4-difluoro-N-(1-(2-methoxyacetyl)indolin-6-yl)benzamide] had an EC50 in experiment [1] of 20 pM. Compared with the last molecule, the EC50 is about 100-fold lower.
Molecule `COCC(=O)N1CCc2ccc(Nc3nc4ccccc4[nH]3)cc21` [Example 14, 1-(6-((1H-benzo[d]imidazol-2-yl)amino)indolin-1-yl)-2-methoxyethan-1-one] returned an EC50 in experiment [1] of 20 pM.
Still for that read-out and setting: to `COCC(=O)N1CCc2ccc(NC(=O)c3ccc(F)c(F)c3)cc21` [Example 15, 3,4-difluoro-N-(1-(2-methoxyacetyl)indolin-6-yl)benzamide] belongs 200 pM; to `COCC(=O)N1CCc2ccc(N(C)C(=O)c3c(F)cc(F)cc3F)cc21` [Example 16, 2,4,6-trifluoro-N-(1-(2-methoxyacetyl)indolin-6-yl)-N-methylbenzamide], 2 pM; to `COCC(=O)N1CCc2ccc(NC(=O)c3cc(F)cc(F)c3)cc21` [Example 17, 3,5-difluoro-N-(1-(2-methoxyacetyl)indolin-6-yl)benzamide], 20 pM.
For the molecule `COCC(=O)N1CCc2ccc(N(S(=O)(=O)c3ccccc3)S(=O)(=O)c3ccccc3)cc21` [Example 19, N-(1-(2-methoxyacetyl)indolin-6-yl)-N-(phenylsulfonyl)benzenesulfonamide], the EC50 is 2000 pM in experiment [1] and 20000 pM in experiment [2].
Consider `COCC(=O)N1CCc2ccc(NC(=O)c3cccc(Br)c3)cc21` [Example 20, 3-bromo-N-(1-(2-methoxyacetyl)indolin-6-yl)benzamide], for which, in experiment [1], a half-maximal effect (EC50) was put at 20 pM.
For the molecule `CN1CCC(C(=O)c2cccc(NC(=O)c3c(F)cc(F)cc3F)n2)CC1` [Example 24, 2,4,6-trifluoro-N-(6-(1-methylpiperidine-4-carbonyl)pyridin-2-yl)benzamide, reference compound], the EC50 in experiment [1] is 600 pM; in experiment [2], 20000 pM.
With `CN(C)CC(=O)N1CCc2ccc(NS(=O)(=O)c3ccccc3)cc21` [Example 25, N-(1-(dimethylglycyl)indolin-6-yl)benzenesulfonamide], the EC50 in experiment [2] was determined as 200 pM.
Still for that read-out and setting: for `CCN(CC)CC(=O)N1CCc2ccc(NC(=O)c3ccccc3)cc21` [Example 26, N-(1-(diethylglycyl)indolin-6-yl)benzamide] the value was 20000 pM; for `O=C(Nc1ccc2c(c1)N(C(=O)CN1CCOCC1)CC2)c1ccccc1` [Example 27, N-(1-(2-morpholinoacetyl)indolin-6-yl)benzamide], 20000 pM.
`CN1CCC(c2c[nH]c3ccc(NC(=O)c4ccc(F)cc4)cc23)CC1` [LY334370, 4-fluoro-N-[3-(1-methyl-4-piperidinyl)-1H-indol-5-yl]benzamide]: in the experiment on RPTC, the maximal mitochondrial respiration entry was “increased” and the “mitochondrial proteins (ATP synthase β, Cox1, NDUFB8)” value is “increased”.
Take `CN(C)[C@@H]1CCc2[nH]c3ccc(NC(=O)c4ccc(F)cc4)cc3c2C1` [LY344864, N-[(3R)-3-(dimethylamino)-2,3,4,9-tetrahydro-1H-carbazol-6-yl]-4-fluorobenzamide]: the “PGC-1α, Cox1 and NDUFB8 transcript levels and mtDNA copy number” value in experiment [4] is recorded as “increased”. Also, in the experiment with RPTC, the maximal mitochondrial respiration entry is “increased” and the “mitochondrial proteins (ATP synthase β, Cox1, NDUFB8)” value is reported as “increased”. The “recovery of renal function (BUN, KIM-1, mtDNA copy number)” value in experiment [5] is reported as “accelerated recovery of renal function”.

These data come from patent US11939301B2, “5HT1F receptor agonists and mitochondrial biogenesis” (MUSC FOUNDATION FOR RESEARCH DEVELOPMENT, priority 2016, dated 2024).
